Results reported in patent US9045505B2, “Nitric oxide donors” (University of Otago, priority 2006, dated 2015).

How the values were obtained:
C2C12 cells = test: S-nitrosation of cellular protein thiols in C2C12 cells; format: cell-based, mouse; details: 5 μM
Description: FIG. 11 is a series of graphs showing S-nitrosation of mitochondrial thiols by MitoSNAP. (a) Time course of S-nitrosation of mitochondrial proteins by MitoSNAP. Liver mitochondria (1 mg protein) were incubated in 1 ml KCl buffer supplemented with rotenone and succinate in the presence of 5 μM MitoSNAP. At various times mitochondria were treated with 10 mM N-ethylmaleimide (NEM), isolated by centrifugation and the S-nitrosothiol content assessed. Data are of a typical experiment showing means±range of duplicate samples for each time point, each measured in duplicate. The experiment was repeated twice. (b) S-nitrosation of mitochondrial proteins by different concentrations of MitoSNAP and SNAP. Aliquots of liver mitochondria were incubated with the indicated concentrations of MitoSNAP or SNAP for […] in the presence or absence of 500 nM FCCP and then assessed for S-nitrosothiol content as in (a). For the +NEM sample, 10 mM NEM was added to the mitochondria and 1 min later 5 μM MitoSNAP was added and incubated for a further 2.5 min. Data are of a typical experiment showing means±range of duplicate samples for each time point, each measured in duplicate. The experiment was repeated twice. (c) S-nitrosation of cellular protein thiols by MitoSNAP. […] After further incubation for 5 min at 37° C. in the dark, the medium was removed and the content of S-nitrosated proteins was measured. […] After 5 min at 37° C. in the dark, the medium was removed and the cells were processed to isolate a mitochondria-enriched fraction and S-nitrosated protein was then determined Data are mean±sem of triplicate determinations (+MitoSNO1), or mean±range of duplicate determinations (+FCCP). […] S-nitrosated thiols were then selectively tagged with Cy3 maleimide and protein (10 μg) was then separated on a 12.5% SDS PAGE gel which was stained with coomassie blue and scanned for Cy3 fluorescence. The Cy3 fluorescence (SNO) and coomassie staining (coomassie) of each gel is shown. […]

liver mitochondria = test: Exposed protein thiols, glutathionylation and GSH/GSSG in liver mitochondria; format: biochemical, rat
Description: Mitochondrial incubations were usually in KCl buffer (120 mM KCl, 10 mM HEPES, 1 mM EGTA, 100 μM N,N-bis(2-bis[carboxymethyl]aminoethyl) glycine (DTPA) and 10 μM neocuproine, pH 7.2) with 10 mM succinate and 4 μg/ml rotenone in the dark at 37° C., unless stated otherwise. An electrode selective for the TPP moiety of MitoSNAP and MitoNAP was made and used as described previously (Asin-Cayuela, J., Manas, A. R., James, A. M., Smith, R. A. & Murphy, M. P. Fine-tuning the hydrophobicity of a mitochondria-targeted antioxidant. FEBS Letts. 571, 9-16 (2004)). Respiration rates were measured in a Clark type O2 electrode (Rank Brothers, UK). To measure GSH and GSSG, mitochondria (1 mg protein/ml) were incubated with 0-10 μM MitoSNO1 or MitoNAP for 10 min, pelleted by centrifugation and the GSH and GSSG contents assessed by the recycling assay (Scarlett, J. L., Packer, M. A., Porteous, C. M. & Murphy, M. P. Alterations to glutathione and nicotinamide nucleotides during the mitochondrial permeability transition induced by peroxynitrite. Biochem. Pharmacol. 52, 1047-1055 (1996)). The measurement of exposed mitochondrial protein thiols is described below.
Small molecules were removed by centrifugation through MicroBioSpin Columns (cut off=6 kDa), the eluate was clarified by centrifugation (2 min at 10,000×g) and protein thiols measured in triplicate by mixing 10 μl sample or GSH standard with 160 μl of 200 μM dithionitrobenzoic acid (DTNB) in 80 mM NaPi, 1 mM EDTA, pH 8 in a 96 well plate and absorbance at 412 nm was measured after 30 min at room temperature and the thiol content determined from the GSH standard curve. The protein concentration was measured in parallel by the bicinchonininc assay using BSA as a standard.
The interaction of MitoSNAP with mitochondrial thiol proteins is likely to initiate a dynamic process that may lead to other protein thiol modifications, such as disulfide formation, glutathionylation, sulfenylation or sulfenylamide formation, in addition to persistent S-nitrosation. To assess these, the content of reactive, solvent-exposed thiols on native liver mitochondrial proteins was measured. […] This is consistent with the finding that the maximum extent of mitochondrial protein S-nitrosation by 5 μM MitoSNAP (˜500 pmol SNO/mg protein; FIG. 11) was only ˜1% of the total number of protein thiols available. A small amount of MitoSNAP binding to mitochondrial thiol proteins through the formation of mixed disulfides was detectable by immunoblotting.

## CC(=O)NC(C(=O)NCCCCC[P+](c1ccccc1)(c1ccccc1)c1ccccc1)C(C)(C)SN=O.CS(=O)(=O)[O-] (stereo not drawn) [MitoSNAP, [5-(2-acetylamino-3-methyl-3-nitrosothio-butyrylamino)-penty1]-triphenylphosphonium methanesulfonate]
C2C12 cells
  time of maximum S-nitrosation of cell proteins: 5 to 10 min
C2C12 cells; 5 min
  S-nitrosation of proteins of a mitochondria-enriched cell fraction: extensively S-nitrosated
  extent of cell protein S-nitrosation: considerably greater than that by SNAP
Liver mitochondria; 5 μM, 5 min, mean±sem, n=3
  reactive, solvent-exposed thiols on native liver mitochondrial proteins: 46.7±9.6 nmol thiols/mg protein
Liver mitochondria; 10 μM, 10 min
  GSH and GSSG content of mitochondria: no loss of GSH or accumulation of GSSG
Liver mitochondria; mitochondria, MitoSNAP 5 μM
  protein-glutathione mixed disulfides (glutathionylation): not detectable
